This is an account of results in ChEMBL document CHEMBL1156705, “Part 1: Effect of vitamin C on the biological activity of two euryfurylbenzoquinones on TLT, a murine hepatoma cell line” (2008).

What all share (format): functional
The nature of assay [1]: Cytotoxicity against mouse TLT cells assessed as decrease in intracellular reduced glutathione level at 1 to 50 ug/ml after 24 hrs by ortho-phthalaldehyde method relative to control. On the set-up: scale not given: the % may be the effect or the level left.
Assay [2] in a line: Induction of apoptosis in mouse TLT cells assessed as effect on caspase 3 activity at 50 ug/ml after 24 hrs by fluorometric assay in presence of 2 mM vitamin C.
Assay [3] in a line: Induction of apoptosis in mouse TLT cells assessed as effect on caspase 3 activity at 1 ug/ml after 24 hrs by fluorometric assay in presence of 2 mM vitamin C.
Assay [4] is described as follows: Cytotoxicity against mouse TLT cells assessed as cytoplasmic LDH release at 50 ug/ml after 24 hrs. A general note: Release of lactate dehydrogenase indicates damage to the cell membrane.
A short description of assay [5]: Induction of apoptosis in mouse TLT cells assessed as effect on caspase 3 activity at 100 ug/ml after 24 hrs by fluorometric assay.
The nature of assay [6]: Induction of apoptosis in mouse TLT cells assessed as effect on caspase 3 activity at 100 ug/ml after 24 hrs by fluorometric assay in presence of 2 mM vitamin C.
The nature of assay [7]: Cytotoxicity against mouse TLT cells assessed as decrease in intracellular ATP level at 1 to 50 ug/ml after 24 hrs by bioluminescence assay relative to control. On the set-up: scale not given: the % may be the effect or the level left.
The nature of assay [8]: Cytotoxicity against mouse TLT cells assessed as decrease in intracellular ATP level at 1 to 50 ug/ml after 24 hrs by bioluminescence assay relative to control in presence of 2 mM vitamin C. On the set-up: scale not given: the % may be the effect or the level left.
A short description of assay [9]: Induction of apoptosis in mouse TLT cells assessed as increase in caspase 3 activity at 50 ug/ml after 24 hrs by fluorometric assay relative to basal level.
Assay [10] is described as follows: Cytotoxicity against mouse TLT cells assessed as cytoplasmic LDH release at 50 ug/ml after 24 hrs in presence of 2 mM vitamin C.
Assay [11] is described as follows: Induction of apoptosis in mouse TLT cells assessed as effect on caspase 3 activity at 50 ug/ml after 24 hrs by fluorometric assay.
Assay [12] is described as follows: Cytotoxicity against mouse TLT cells assessed as decrease in intracellular reduced glutathione level at 1 to 50 ug/ml after 24 hrs by ortho-phthalaldehyde method relative to control in presence of 2 mM vitamin C. On the set-up: scale not given: the % may be the effect or the level left.
Assay [13] can be described thus: Induction of apoptosis in mouse TLT cells assessed as increase in caspase 3 activity at 50 ug/ml after 24 hrs by fluorometric assay relative to basal level in presence of 2 mM vitamin C.
A short description of assay [14]: Induction of apoptosis in mouse TLT cells assessed as effect on caspase 3 activity at 1 ug/ml after 24 hrs by fluorometric assay.
Assay [15] can be described thus: Cytotoxicity against mouse TLT cells assessed as decrease in intracellular reduced glutathione level at 50 ug/ml after 24 hrs by ortho-phthalaldehyde method relative to control in presence of 2 mM vitamin C. The arrangement: scale not given: the % may be the effect or the level left.
Assay [16] is described as follows: Cytotoxicity against mouse TLT cells assessed as cytoplasmic LDH release at 1 ug/ml after 24 hrs.
Assay [17] in a line: Cytotoxicity against mouse TLT cells assessed as decrease in intracellular ATP level at 50 ug/ml after 24 hrs by bioluminescence assay relative to control in presence of 2 mM vitamin C. The arrangement: scale not given: the % may be the effect or the level left.

SMILES strings stand for the structures.

On to `CC1(C)CCCC2(C)c3coc(C4=CC(=O)C=CC4=O)c3CCC12` (centres undefined), for which the Activity in [1] amounted to 60%; in assay [2], 25.6 mU; in [3], 15.1 mU; in assay [4] it was 28%; in [5], 51.1 mU; in [6], 57.8 mU. Also, the Activity in assay [7] was determined as 40%; in assay [8], 40%; in [9] it was 2.5; in [10] it was 28%; in assay [11], 37.2 mU; in [12] it was 60%. The Activity is recorded as 3.5 in assay [13] and 21.3 mU in [14].
Turning to `CC1(C)CCCC2(C)c3coc(C4=C([N+](=O)[O-])C(=O)C=CC4=O)c3CCC12` (centres undefined), the Activity came out at 10.7 mU in assay [2]; 12.8 mU in assay [3]; 25% in assay [15]; 22.5 mU in assay [5]; 1 mU in assay [6]; 28% in assay [16]. Further, the Activity in assay [10] was 60%; in [11], 27.4 mU; in [14], 31.9 mU; in [17], 50%.
